In experiment [1] the test system is plasma levels of IL-6, TNF-α and IL12. In words: CLP sepsis model, plasma cytokines by ELISA. The format is in vivo. The following applies: CLP mice; SUL-138 5 mg/kg s.c. 2 h before and 8 h after surgery; 24 hours. On the procedure: To induce sepsis, the standard cecal ligation and puncture (CLP) model was used. Animals were anesthetized by subcutaneous injection of xylazine/ketamine (100/10 mg/kg), followed by administration of buprenorphine (0.1 mg/kg) as analgesic. After confirmation of anesthesia by lack of response to paw pinch and eye reflex, the abdomen was shaved, cleaned, and de-germed using a povidone-iodine solution before a 1-cm midline incision was made. The cecum was ligated with a 6-0 suture at half the distance between distal pole and the base of the cecum and punctured once with a 21-Gauge needle (‘through-and-through’ from mesenteric toward anti-mesenteric direction) which is an accepted model for ‘mid-grade’ sepsis. A small amount of stool (2-3 mm) was then extruded to ensure wound patency. The cecum was repositioned, thereby taking care not to spill fecal material on the wound edges, followed by closure of the abdomen by running sutures to the abdominal musculature and short interrupted sutures to the skin. Next, 1 ml of saline (warmed, 0.9% NaCl s.c.) was administered to compensate for the expected relative volume depletion due to the onset of sepsis.
Mice in the SUL-138 treated groups were injection with SUL-138 (dissolved in saline, 5 mg/kg, s.c.) at 2 hours before and 8 hours after surgery, while mice in the other groups were injected with an equal volume of saline at these time-points.
Mice were sacrificed 24 hours after the procedure. Upon euthanization, EDTA-anticoagulated blood was separated into plasma by centrifugation at 1,600 g for 10 min and serum by allowing it to clot for 30 min followed by centrifugation at 3,000 g for 10 min.
To quantify the effect of sepsis severity and treatment with SUL-138 on systemic inflammation, levels of TNFα, IL-6 and IL-12 in plasma were measured using Mouse DuoSet ELISAs (DY410, DY406 and D419, respectively, RnD-Systems), according to the manufacturer's instructions. […] The optical density (OD) was measured using a microplate reader set to 450 nm, while readings at 540 nm were subtracted as correction to increase accuracy.
(In general: ELISA stands for enzyme-linked immunosorbent assay.)

The subject of another experiment is TNFα mRNA expression. The experiment can be described thus: Endothelial inflammatory activation after endotoxin, TNFα mRNA (Example 5). The format is cell-based, Human. The following applies: HUVEC; 10 μM for 30 min. On the procedure: (§1) Human Umbilical Cord Endothelial Cells (HUVEC, Lonza CC-2519) were maintained on 1% gelatin-coated culture flasks in RPMI1640 medium containing 20% fetal bovine serum, 2 mM Glutamine (Sigma-Aldrich), 1% Penicillin-Streptomycin solution (Sigma-Aldrich) and 50 μg/ml Bovine Pituitary Extract (Invitrogen). HUVEC were passaged by trypsinization when the cultures reach a confluency of 70%. For all experiments, HUVEC were seeded at 0.6·10^5 cells/cm^2 and allowed to adhere for 24 hours.
(§2) HUVEC cells were lysed in triZOL reagens (Invitrogen) and total RNA isolated according to manufacturers' instruction. 1 μg total RNA per sample was reverse transcribed using the FirstAid Reverse Transcription Kit (ThermoFisher). Copy-DNA equivalents of 5 ng total RNA were amplified on a ViiA7 Real-time PCR system (ThermoFisher, Waltham, Mass.) using iTaq Universal SYBR Green Supermix (Bio-Rad, Hercules, Calif.) and primers specific for tumor necrosis factor alpha (TNFα; sense 5′-[…]-3′, antisense 5′-[…]-3′), interleukin 1 beta (IL-1β; sense 5′-[…]-3′, antisense 5′-[…]-3′), interleukin-6 (IL-6; sense 5′-[…]-3′, antisense 5′-[…]-3′) and beta actin (ACTB; sense 5′-[…]-3′, antisense 5′-[…]-3′) as loading control. Amplification was performed for 40 cycles of 95° C. for 30 s, 60° C. for 1 min. Relative mRNA expression was calculated according to the δδCt-method.

The subject of another experiment is IL-1β mRNA expression. The experiment can be described thus: Inhibition of LPS-induced IL-1β mRNA expression in HUVEC. The format is cell-based, Human. The settings on record: 10 μM for 30 min, then LPS 24 hours. On the procedure:
as §1
HUVEC and NRK52E cells were pre-incubated with SUL compounds (10 μM) for 30 min and subsequently exposed to LPS for 24 hours under standard culture conditions. Cells were lysed in triZOL reagens (Invitrogen) and total RNA isolated according to manufacturers' instruction. 1 μg total RNA per sample was reverse transcribed using the FirstAid Reverse Transcription Kit (ThermoFisher). Copy-DNA equivalents of 5 ng total RNA were amplified on a ViiA7 Real-time PCR system (ThermoFisher, Waltham, Mass.) using iTaq Universal SYBR Green Supermix (Bio-Rad, Hercules, Calif.) and primers specific for tumor necrosis factor alpha, interleukin 1 beta, interleukin-6 and beta actin as loading control. Amplification was performed for 40 cycles of 95° C. for 30 s, 60° C. for 1 min. Relative mRNA expression was calculated as 2^−(Cq^gene^−Cq^reference^) and normalized to unstimulated control cells (100% inhibition) and vehicle-treated and LPS exposed cells (0% inhibition). The following primers were used: […]

The next experiment has as its system IL-6 mRNA expression. The experiment can be described thus: Endothelial inflammatory activation after endotoxin, IL-6 mRNA (Example 5). The following applies: HUVEC; 10 μM for 30 min. The format is cell-based, Human. On the procedure: as §1, §2

SMILES strings stand for the structures.

On to `Cc1c(C)c2c(c(C)c1O)CC[C@@](C)(C(=O)N1CCN(CCO)CC1)O2` [SUL-138, (S)-(6-hydroxy-2,5,7,8-tetramethylchroman-2-yl)(4-(2-hydroxyethyl)piperazin-1-yl)methanone], for which, in experiment [1], the “plasma level of IL12” value is “decreased by treatment with SUL-138 to levels close to untreated control”; the “plasma level of IL-6” value is recorded as “decreased by treatment with SUL-138 to levels close to untreated control”; the “plasma level of TNF-α” value is recorded as “clearly lower, but the difference did not reach significance”. Further, in the experiment with TNFα mRNA expression, the “LPS-induced mRNA expression of TNFα” value was “precludes the induction of mRNA expression of the pro-inflammatory cytokine TNFα”. Further, the “inhibition of LPS-induced mRNA expression of IL-1β” value with IL-1β mRNA expression is 76.3 ± 7.9 %. Besides, the “LPS-induced mRNA expression of IL-6” value in the experiment on IL-6 mRNA expression is “precluded the LPS-induced increase in IL-1β and IL-6”.

The record behind these values is US20230202997A1, “CHROMANOL, QUINONE OR HYDROQUINONE COMPOUNDS FOR TREATMENT OF SEPSIS” (Sulfateq B.V., priority 2020, published 2023).
